# Molecular target: T1, human IRAK4 (Homo sapiens, UniProt Q9NWZ3)
# T1 construct: purchased Carna
# T1 sequence (Q9NWZ3 1-460): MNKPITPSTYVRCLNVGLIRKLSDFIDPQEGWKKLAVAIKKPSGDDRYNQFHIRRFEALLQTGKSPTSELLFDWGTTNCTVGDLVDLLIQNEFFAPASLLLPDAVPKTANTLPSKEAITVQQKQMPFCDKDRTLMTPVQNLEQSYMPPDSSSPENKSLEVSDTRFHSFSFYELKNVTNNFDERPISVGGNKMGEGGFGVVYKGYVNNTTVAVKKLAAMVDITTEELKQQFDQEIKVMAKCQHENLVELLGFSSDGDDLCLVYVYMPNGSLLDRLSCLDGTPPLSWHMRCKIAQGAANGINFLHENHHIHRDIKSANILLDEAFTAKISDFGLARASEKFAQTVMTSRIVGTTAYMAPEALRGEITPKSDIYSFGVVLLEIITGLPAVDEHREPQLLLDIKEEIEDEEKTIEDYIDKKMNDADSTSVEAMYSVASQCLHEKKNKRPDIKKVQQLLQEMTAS
# Assay: IRAK4 MSA (Mobility-Shift Assay), inhibition of human IRAK4 kinase activity
# Format: biochemical
# Details: GST-IRAK4 1 nM, ATP at Km concentration (37 μM), 28° C. for 1 h, Caliper EZ Reader; read-out: IC50 against human IRAK4 kinase activity
# Method: The inhibitory activity of the compounds against IRAK4 at the Km concentration of ATP was measured in IRAK4 MSA (Mobility-Shift Assay, a mobility detection of microfluidic chip technology).
# A recombinant fusion protein of N-terminal GST (glutathione-S-transferase) and human IRAK4 was used as enzyme (GST-IRAK4, kinase IRAK4 (Carna)) at a final concentration of 1 nM; ATP (Sigma) was at a final concentration of 37 μM; the substrates used for the kinase reaction were 5-FAM (5-carboxyfluorescein)-labeled polypeptide (5-FAM-IPTSPITTTYFFFKKK-COOH) and substrate peptide FAM-P8 (GL Biochem) at final concentrations of 5 μM.
# In this assay, a 500 μM stock solution of the compounds was prepared in 100% DMSO, and serially 4-fold diluted to the 10th concentrations with 100% DMSO, followed by a 10-fold dilution with the compound buffer (50 mM HEPES, pH 7.5, 0.00015% Brij-35) to give intermediate dilutions of the compounds at final concentrations of 10 μM-0.04 nM containing 10% DMSO. The intermediate dilutions was transferred into a black 384-well plate at a volume of 5μL.
# Kinase IRAK4 was diluted to 2.5 nM with the kinase buffer (50 mM HEPES, pH 7.5, 0.00015% Brij-35, 2 mM DTT). 10 μL of the IRAK4 dilution was transferred to the 384-well plate and co-incubated with the compound for 10-15 min.
# The substrate and ATP were diluted to 12.5 μM and 92.5 μM with reaction buffer (50 mM HEPES, pH 7.5, 0.00015% Brij-35, 10 mM MgCl2), respectively. 10 μL of the dilutions was transferred to the 384-well plate and incubated at 28° C. for 1 h. The reaction was terminated by adding 25 μL of 50 mM EDTA to the 384-well plate.
# The inhibition rates of IRAK4 by the compounds were calculated by measuring the conversion rate of phosphorylation of the substrate using a Caliper EZ Reader (PerkinElmer) and the IC50 was calculated by XL-fit software.
row,IC50 [nM],Compound
1,1.1,"COc1cc2nn([C@H]3C[C@H](C(C)(C)O)C3)cc2cc1NC(=O)c1cccc(C(F)(F)F)n1 [Compound 1, 6-trifluoromethyl-pyridine-2-carbomoylic acid {2-[3′-(1-hydroxy-1-methyl-ethyl)-cyclobutyl]-6-methoxy-2H-indazol-5-yl} -amide]"
2,2.5,"COc1cc2nn([C@H]3CC[C@H](O)CC3)cc2cc1NC(=O)c1cccc(C2CC2)[n+]1[O-] [Compound 2, 6-cyclopropyl-1-oxy-pyridine-2-carbomoylic acid [2-(4′-hydroxy-trans-cyclohexyl)-6-methoxy-2H-indazol-5-yl]-amide]"
3,4.6,"COc1cc2nn([C@H]3CC[C@](C)(O)CC3)cc2cc1NC(=O)c1cccc(C)[n+]1[O-] [Compound 4, 6-methyl-1oxo-pyridine-2-carbomoylic acid [2-(4′-hydroxy-4-methyl-cyclohexyl)-6-methoxy-2H-indazol-5-yl]-amide]"

row,Compound,IC50 [nM]
1,quinoline-8-carbomoylic acid [2-(4′-hydroxy-4-methyl-cyclohexyl)-6-methoxy-2H-indazol-5-yl]-amide [Compound 3],3.3

# Reference: patent publication US20230250064A1, “PREPARATION METHOD FOR FUSED PYRAZOLE-TYPE COMPOUND” (SHANGHAI MEIYUE BIOTECH DEVELOPMENT CO., LTD., priority 2020, published 2023)
